Measurements as given in patent US20260191818A1 (University of South Carolina, priority 2022, published 2026).

Experiments:
[1] = system: soleus muscle mitochondria; test: Transmission electron microscopy of soleus muscle, mitochondrial number and size; type: in vivo, CD2F1 mice; conditions: C26+5FU+Quer vs C26+5FU
Method: Mitochondrial number and size were assessed in the soleus muscle using transmission electron microscopy (TEM). Skeletal muscle was prepared for TEM as previously described. See, VanderVeen, B. N., et al., 5-Fluorouracil disrupts skeletal muscle immune cells and impairs skeletal muscle repair and remodeling. J Appl Physiol (1985), 2022. 133(4): p. 834-849. The soleus was excised and initially fixed in 2.5% EM-grade glutaraldehyde followed by a secondary fixation in 1% osmium tetroxide and 1.5% K+ ferricyanide. After dehydration with increasing concentrations of ethanol, the samples were transferred to acetonitrile and embedded in Polybed 812. Ultrathin (~70 nm) sections were cut with a Leica Reichert Ultracut R ultramicrotome (Leica Microsystems GmbH, Wetzlar, Germany), collected on copper grids and stained with uranyl acetate and lead citrate. A JEOL 1400+ transmission electron microscope (JEOL USA, Peabody, MA) was used to view sections, and digital images were obtained with an Advanced Microscopy Techniques XR 81 Camera (Advanced Microscopy Techniques, Woburn, MA). Tissues were searched for intact and aligned sarcomeres by an investigator blinded to the experimental groups. […] Mitochondrial size was calculated by circling discernible mitochondria with ImageJ within the F.O.V. and averaged across the multiple images within a single mouse.

P62, LC3B, Parkin, BNIP3 = test: Western blot of rectus femoris, autophagy and mitophagy proteins; type: in vivo, CD2F1 mice; conditions: C26+5FU+Quer vs C26+5FU
Method: Protein isolation and western blotting was completed similar to what has been previously described. See, Sougiannis, A. T., et al., Impact of weight loss and partial weight regain on immune cell and inflammatory markers in adipose tissue in male mice. J Appl Physiol (1985), 2020. 129(4): p. 909-919. The rectus femoris (RF) was teased from the other quadriceps muscles, cut in half (proximal/distal), snap frozen in liquid nitrogen, and stored at −80° C. The distal RF was homogenized in Mueller Buffer (50 mM Hepes, 0.1% Triton-x, 4 mM EGTA, 10 mM EDTA, 15 mM Na4P207, 100 mM β-glycerophosphate, 25 mM NaF, and 5 mM NaVO4, with protease inhibitor cocktail) using a bead homogenizer at 4° C. Samples were centrifuged and the supernatant was collected and diluted with a diluent buffer (50% Glycerol, 50 mM Na4P2O7, 2.5 mM EGTA, and 1 mM β-mercaptoethanol with protease inhibitor cocktail). […] Between 10-50 μg of muscle protein homogenate was separated via SDS-PAGE and transferred to a PVDF membrane. Membranes were stained with Ponceau Red to confirm even loading and transfer efficiency. Membranes were then washed with tris buffered saline with 0.1% Tween (TBST) before blocking for 1 h at room temp with 5% milk TBST. Membranes were then incubated in primary anti-body (Table 1, see FIG. 8) overnight at 4° C. under gentle agitation. Membranes were then washed 3×5 min and incubated with the appropriate (anti-mouse or rabbit) HRP-linked secondary in 5% milk TBST for 1 h at room temperature. After a final 3×5 min wash membranes were incubated in chemiluminescent HRP substrate before visualization with a Syngene G:box. Images were then scanned, and relative protein expression was determined with ImageJ. Investigator was blinded to sample loading scheme and images were cropped after analysis for representation. All samples (full Ns) were run together for each protein. Dotted lines indicate where gels were cropped.

PPARG, PPARGCA1 = test: RT-PCR of rectus femoris, mitochondrial biogenesis genes; type: in vivo, CD2F1 mice; conditions: C26+5FU+Quer vs C26+5FU
Method: RNA from the proximal portion of the RF was isolated as previously described. […] Briefly, RNA was extracted from the RF using the […] procedure (Life Technologies, Gibco-BRL, Carlsbad, CA). RNA sample quality and quantities were verified using a Nanodrop One Microvolume UV-Vis Spectrophotometer (Thermo Fisher Scientific, Waltham, MA). […] Quantitative RT-PCR analysis was carried out as per the manufacturer's instructions (Applied Biosystems) using Taq-Man Gene Expression Assays.

[2] = system: STAT3, P65/NFκβ, P38/MAPK; test: Western blot of rectus femoris, inflammatory signaling proteins; type: in vivo, CD2F1 mice; conditions: C26+5FU+Quer vs C26+5FU
Method: Protein isolation and western blotting was completed similar to what has been previously described. See, Sougiannis, A. T., et al., Impact of weight loss and partial weight regain on immune cell and inflammatory markers in adipose tissue in male mice. J Appl Physiol (1985), 2020. 129(4): p. 909-919. The rectus femoris (RF) was teased from the other quadriceps muscles, cut in half (proximal/distal), snap frozen in liquid nitrogen, and stored at −80° C. The distal RF was homogenized in Mueller Buffer (50 mM Hepes, 0.1% Triton-x, 4 mM EGTA, 10 mM EDTA, 15 mM Na4P207, 100 mM β-glycerophosphate, 25 mM NaF, and 5 mM NaVO4, with protease inhibitor cocktail) using a bead homogenizer at 4° C. Samples were centrifuged and the supernatant was collected and diluted with a diluent buffer (50% Glycerol, 50 mM Na4P2O7, 2.5 mM EGTA, and 1 mM β-mercaptoethanol with protease inhibitor cocktail). Protein concentrations were determined using the Bradford standard protein assay and protein integrity was confirmed with SDS-PAGE and amido black staining. Between 10-50 μg of muscle protein homogenate was separated via SDS-PAGE and transferred to a PVDF membrane. Membranes were stained with Ponceau Red to confirm even loading and transfer efficiency. Membranes were then washed with tris buffered saline with 0.1% Tween (TBST) before blocking for 1 h at room temp with 5% milk TBST. Membranes were then incubated in primary anti-body (Table 1, see FIG. 8) overnight at 4° C. under gentle agitation. Membranes were then washed 3×5 min and incubated with the appropriate (anti-mouse or rabbit) HRP-linked secondary in 5% milk TBST for 1 h at room temperature. After a final 3×5 min wash membranes were incubated in chemiluminescent HRP substrate before visualization with a Syngene G:box. Images were then scanned, and relative protein expression was determined with ImageJ. Investigator was blinded to sample loading scheme and images were cropped after analysis for representation. All samples (full Ns) were run together for each protein. Dotted lines indicate where gels were cropped.

[3] = system: ApcMin/+ model of intestinal cancer; conditions: 25 mg/kg of quercetin; cited from earlier work

SMILES: O=c1c(O)c(-c2ccc(O)c(O)c2)oc2cc(O)cc(O)c12 [quercetin, 3,4,5,7-pentahydroxylflavone]
- greater number of mitochondria ([1]; soleus TEM per F.O.V., p=0.04): 89.6%
- greater mitochondrial size ([1]; soleus TEM, p>0.01 as printed): 45.3%
- change in LC3b expression (P62, LC3B, Parkin, BNIP3; no observed difference, p=0.2): −33.4%
- change in P62 expression (P62, LC3B, Parkin, BNIP3; no observed difference, p=0.20): −33.4%
- change in BNIP3 expression (P62, LC3B, Parkin, BNIP3; significant increase, p=0.024): 555%
- change in gene expression of PPARG (PPARG, PPARGCA1; p=0.04): −64.0%
- change in PPARGCA1 gene expression (PPARG, PPARGCA1; without changes, p=0.36): 10.3%
- change in p/tP65 ([2]; increased, p=0.03): 41.9%
- change in phospho:total P38 ([2]; p=0.19): −30.0%
- change in phospho:total (p/t) STAT3 ([2]; p=0.36): 33.2%
- muscle mass and strength [3]: preserved muscle mass and strength
